Experimental data reported in US20230045112A1, “DISULFIRAM AND OTHER REDOX-RELATED COMPOSITIONS FOR BRAIN TUMORS” (Texas Tech University System, priority 2014, published 2023).

How the values were obtained:
Cys145 of MGMT = target: T1, Cys145 of MGMT (Homo sapiens, UniProt P16455); assay: BG-PEG-biotin probe binding to MGMT
T1 construct: hexa-histidine; made in house; host or cells: E. coli
T1 sequence (P16455 1-207): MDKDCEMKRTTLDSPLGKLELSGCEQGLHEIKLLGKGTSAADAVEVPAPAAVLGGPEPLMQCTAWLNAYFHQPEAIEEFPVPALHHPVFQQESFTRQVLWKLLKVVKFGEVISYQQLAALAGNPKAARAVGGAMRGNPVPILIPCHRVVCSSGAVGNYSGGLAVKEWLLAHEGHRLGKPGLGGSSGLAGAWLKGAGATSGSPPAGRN
Description: Drug treatments and exposure times are shown in labels. […] Cells were trypsinized at times shown. Levels of MGMT activity and protein were determined in cell extracts. […] BG-PEG-biotin (5 μM) was then added and incubations continued for 15 minutes. The samples were electrophoresed, blotted and probed with Streptavidin-HRP to detect the protein-bound biotin (upper panel). […] Streptavidin-HRP was used to probe the resulting blot (upper panel).
MGMT protein and activity levels were analyzed during the depletion and repletion (FIG. 3B). […] MGMT protein levels as determined by western analyses during the depletion/repletion cycle were consistent with and fully reflected the DNA repair activity profiles (FIG. 3B, left panel).

[1] = test system: U87 malignant glioma cells; assay: MTT cell survival assay, MGMT-deficient cells; assay type: cell-based, human; conditions: DSF-pretreated U87 cells lacking MGMT expression
Description: These were performed using the yellow tetrazolium dye (3-(4, 5-dimethylthiazolyl-2)-2, 5-diphenyl tetrazolium bromide) (MTT) as described previously. […] The purple color developed due to formazan was measured at 570 nm using a […]luor Plus plate reader (Tecan Inc.). Cell proliferation was also assessed by colony formation assays on soft agar.
Cells were then cultured for 48 hours before performing the MTT assays. […] The effect of drugs on cell survival was computed at each concentration. The data represents the results of three independent experiments performed in triplicate. Values are mean+S.D. The results presented in panels B, C and G (at 25-75 μM BCNU and 250-750 temozolomide) were significant at P<0.05. *, indicates statistically significant difference as compared to controls.

MGMT = target: T2, MGMT (Mus musculus, UniProt P26187); assay: MGMT activity in mouse brain and liver after DSF administration; assay type: in vivo, mice; conditions: single dose 150 mg/kg i.p., 9-12 hours
T2 construct: from tissue; host or cells: mouse brain and liver
Text: Control mice received DMSO alone.
Error bars indicate SD. […] The overall findings of the present study are summarized.

[2] = test system: wild-type and mutant p53, NF-κB, and ubiquitin E1; assay: Degradation of redox-sensitive proteins by disulfiram; assay type: cell-based

T2 sequence (P26187 whole entry): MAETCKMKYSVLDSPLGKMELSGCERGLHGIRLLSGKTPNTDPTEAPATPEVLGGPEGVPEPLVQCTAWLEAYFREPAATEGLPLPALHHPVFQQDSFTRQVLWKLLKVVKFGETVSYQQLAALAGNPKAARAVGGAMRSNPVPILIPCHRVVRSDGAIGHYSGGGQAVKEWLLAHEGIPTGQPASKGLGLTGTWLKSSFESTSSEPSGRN

## CCN(CC)C(=S)SSC(=S)N(CC)CC [DSF, 1,1′,1″,1′″-[disulfanediylbis(carbonothioylnitrilo)]tetraethane]
Cys145 of MGMT; 50 μM DSF, 20 minutes at 37° C., wild type rMGMT
  binding of BG-PEG-biotin probe to purified rMGMT after drug: significant reduction in binding of the probe
Cys145 of MGMT; UW228 cell extracts, 20 minutes
  BG-PEG-biotin labeling of MGMT in cell extracts after drug: eliminated the western blot signal
[1]
  effect on cell killing by TMZ or BCNU: did not increase the extent of cell killing by TMZ or BCNU
MGMT
  decrease of MGMT repair activity in brain: 40%
[2]
  degradation of redox-sensitive proteins: degraded by disulfiram in a dose-dependent manner
